Source: patent US10414811B2, “Protease-resistant lipidated GLP-1 analogs” (MEDIMMUNE LIMITED, priority 2015, dated 2019)
Read-outs that look alike come from different tables or passages of the source.

How the values were obtained:
Assay type in all cases: cell-based
[1] = target: T1, human GLP-1 receptor (GLP-1R) (Homo sapiens, UniProt P43220); test: cAMP assay, human GLP-1R cells
T1 construct: expressed in transfected cells
In short: (§1)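 Peptide-stimulated cAMP measured by two-step HTRF after a 30 min room-temperature incubation with receptor-expressing cells (hGLP-1R, hGIPR at 1×10^5 cells/ml; hGCGR at 2×10^5 cells/ml). Duplicate dilutions; EC50 from 4-parameter logistic fit of % Delta F.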

[2] = target: T2, human glucagon receptor (GCGR) (Homo sapiens, UniProt P47871); test: cAMP assay, human GCGR cells
T2 construct: expressed in transfected cells
T2 sequence (P47871 26-477): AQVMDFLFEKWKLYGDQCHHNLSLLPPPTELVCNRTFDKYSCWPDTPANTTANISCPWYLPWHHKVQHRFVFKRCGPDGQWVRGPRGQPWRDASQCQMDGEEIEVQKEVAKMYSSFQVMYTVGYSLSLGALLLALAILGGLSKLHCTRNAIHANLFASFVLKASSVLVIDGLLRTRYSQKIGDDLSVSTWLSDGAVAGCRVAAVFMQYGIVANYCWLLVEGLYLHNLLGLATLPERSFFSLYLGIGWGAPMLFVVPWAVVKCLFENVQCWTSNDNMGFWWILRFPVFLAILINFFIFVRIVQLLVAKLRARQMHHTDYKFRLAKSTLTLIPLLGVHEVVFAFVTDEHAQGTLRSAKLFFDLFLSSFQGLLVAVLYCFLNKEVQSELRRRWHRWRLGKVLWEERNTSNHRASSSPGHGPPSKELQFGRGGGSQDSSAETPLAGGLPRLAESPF
In short: as §1

[3] = target: T3, human glucose-dependent insulinotropic peptide receptor (GIPR) (Homo sapiens, UniProt P48546); test: cAMP assay, human GIPR cells
T3 construct: expressed in transfected cells
T3 sequence (P48546 22-466): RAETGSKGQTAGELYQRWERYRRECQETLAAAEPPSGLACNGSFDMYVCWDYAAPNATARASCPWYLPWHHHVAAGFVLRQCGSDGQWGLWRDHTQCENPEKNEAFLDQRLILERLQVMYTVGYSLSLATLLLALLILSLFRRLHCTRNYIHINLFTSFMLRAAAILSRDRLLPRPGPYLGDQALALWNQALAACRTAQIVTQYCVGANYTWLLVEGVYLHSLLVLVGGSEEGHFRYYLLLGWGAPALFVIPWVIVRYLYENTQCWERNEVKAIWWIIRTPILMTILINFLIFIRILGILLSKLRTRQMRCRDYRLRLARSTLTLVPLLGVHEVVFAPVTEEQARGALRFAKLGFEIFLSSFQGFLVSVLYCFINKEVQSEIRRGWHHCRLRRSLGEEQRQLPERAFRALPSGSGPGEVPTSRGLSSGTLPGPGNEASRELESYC
In short: as §1

[4] = target: T4, GLP-1R (INS1e assay) (Rattus norvegicus, UniProt P32301); test: INS1e assay, cAMP activity at GLP-1R; settings: mono-lipidated peptides
T4 construct: endogenous in cells; host or cells: INS-1E cells
T4 sequence (P32301 22-463): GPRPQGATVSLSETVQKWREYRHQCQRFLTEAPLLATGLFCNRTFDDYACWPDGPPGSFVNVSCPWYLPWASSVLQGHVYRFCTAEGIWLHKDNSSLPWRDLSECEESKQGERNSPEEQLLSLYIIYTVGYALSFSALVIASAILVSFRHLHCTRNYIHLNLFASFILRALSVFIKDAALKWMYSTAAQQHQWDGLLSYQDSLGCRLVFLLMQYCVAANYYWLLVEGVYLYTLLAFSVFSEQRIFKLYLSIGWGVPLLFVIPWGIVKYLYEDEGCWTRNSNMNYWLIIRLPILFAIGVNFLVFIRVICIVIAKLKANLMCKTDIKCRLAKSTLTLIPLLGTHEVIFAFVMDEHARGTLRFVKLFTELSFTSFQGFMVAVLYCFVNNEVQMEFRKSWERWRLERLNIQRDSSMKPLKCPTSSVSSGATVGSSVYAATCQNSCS
In short: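 It pairs cAMP-d2 acceptor with anti-cAMP cryptate donor, both prepared 1/20 in conjugate/lysis buffer, applied as a two-step protocol.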

[5] = cAMP assay, first determination (n1), read-out: Primary assay EC50 GLP-1R n1
[6] = mean of n1 and n2, read-out: Mean pM GLP-1R
[7] = cAMP assay, first determination (n1), read-out: Primary assay EC50 Gluc-R (n1)
[8] = cAMP assay, second determination (n2), read-out: Primary assay EC50 Gluc-R (n2)
[9] = cAMP assay, first determination (n1), read-out: Primary assay EC50 GIP-R (n1)
[10] = cAMP assay, second determination (n2), read-out: Primary assay EC50 GIP-R (n2)
[11] = mean of n1 and n2, read-out: INS1e assay EC50 Mean pM GLP-1R
[12] = replicate n1, read-out: INS1e assay EC50 GLP-1R n1
[13] = replicate n2, read-out: INS1e assay EC50 GLP-1R n2
[14] = first run (n1), cAMP activity, read-out: Primary assay EC50 GLP-1R n1
[15] = second run (n2), cAMP activity, read-out: Primary assay EC50 GLP-1R n2
[16] = first run (n1), cAMP activity of substituted and mono-lipidated peptides, read-out: Primary assay EC50 Gluc-R
[17] = second run (n2), cAMP activity, read-out: Primary assay EC50 Gluc-R
[18] = first run (n1), cAMP activity, read-out: Primary assay EC50 GIP-R
[19] = second run (n2), cAMP activity, read-out: Primary assay EC50 GIP-R

T1 sequence (P43220 24-463): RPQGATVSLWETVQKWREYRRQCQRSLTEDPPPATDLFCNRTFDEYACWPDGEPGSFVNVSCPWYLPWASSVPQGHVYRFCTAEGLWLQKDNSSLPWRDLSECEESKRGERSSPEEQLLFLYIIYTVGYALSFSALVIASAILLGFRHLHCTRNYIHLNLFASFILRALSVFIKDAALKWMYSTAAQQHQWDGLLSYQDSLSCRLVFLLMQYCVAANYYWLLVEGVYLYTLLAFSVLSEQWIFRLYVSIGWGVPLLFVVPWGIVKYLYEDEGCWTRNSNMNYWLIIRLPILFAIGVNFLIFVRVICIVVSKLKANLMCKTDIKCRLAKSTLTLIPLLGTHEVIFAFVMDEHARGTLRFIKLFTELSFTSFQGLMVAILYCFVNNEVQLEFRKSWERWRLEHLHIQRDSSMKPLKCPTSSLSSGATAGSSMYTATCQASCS

Row | EC50 [1, 5] | EC50 [1, 6] | EC50 [2, 7] | EC50 [2, 8] | EC50 [3, 9] | EC50 [3, 10] | EC50 [4, 11] | EC50 [4, 12] | EC50 [4, 13] | EC50 ([1]; cAMP assay, second determination (n2), read-out: Primary assay EC50 GLP-1R n2) | EC50 [1, 14] | EC50 [1, 15] | EC50 [2, 16] | EC50 [2, 17] | EC50 [3, 18] | EC50 [3, 19] | Compound
1 | – | 7.2 pM | – | – | – | – | 44.1 pM | 39.7 pM | 48.5 pM | – | 9.7 pM | 4.7 pM | ≥ 26 nM | ≥ 26 nM | ≥ 26 nM | ≥ 26 nM | CCCCCCCCCCCCCCCCCC(=O)NCCOCCOCC(=O)NCCOCCOCC(=O)NCCOCCOCC(=O)NCCCC[C@H](NC(=O)[C@@H](NC(=O)[C@@H](NC(=O)[C@](C)(Cc1ccccc1)NC(=O)[C@H](C)NC(=O)[C@@H](NC(=O)[C@](C)(Cc1ccccc1)NC(=O)[C@H](CCC(=O)O)NC(=O)[C@](C)(CCCCN)NC(=O)[C@H](C)NC(=O)[C@H](C)NC(=O)[C@H](CCC(=O)O)NC(=O)CNC(=O)[C@H](CCC(=O)O)NC(=O)[C@H](CC(C)C)NC(=O)[C@](C)(Cc1ccccc1)NC(=O)[C@H](CO)NC(=O)[C@](C)(CO)NC(=O)[C@@H](NC(=O)[C@H](CC(=O)O)NC(=O)[C@H](CO)NC(=O)[C@@H](NC(=O)[C@](C)(Cc1ccccc1)NC(=O)[C@H](CO)NC(=O)CNC(=O)[C@H](CCC(=O)O)NC(=O)C(C)(C)NC(=O)[C@@H](N)Cc1c[nH]cn1)[C@@H](C)O)C(C)C)[C@@H](C)CC)C(C)C)C(C)C)C(=O)NCC(=O)NCC(N)=O [compound 190]
2 | – | 27.9 pM | – | – | – | – | 1140 pM | 1380 pM | 890 pM | – | 41 pM | 15 pM | ≥ 26 nM | ≥ 26 nM | ≥ 26 nM | ≥ 26 nM | CC[C@H](C)[C@H](NC(=O)[C@](C)(Cc1ccccc1)NC(=O)[C@H](CCC(=O)O)NC(=O)[C@](C)(CCCCN)NC(=O)[C@H](C)NC(=O)[C@H](C)NC(=O)[C@H](CCC(=O)O)NC(=O)CNC(=O)[C@H](CCC(=O)O)NC(=O)[C@H](CC(C)C)NC(=O)[C@](C)(Cc1ccccc1)NC(=O)[C@H](CO)NC(=O)[C@](C)(CO)NC(=O)[C@@H](NC(=O)[C@H](CC(=O)O)NC(=O)[C@H](CO)NC(=O)[C@@H](NC(=O)[C@](C)(Cc1ccccc1)NC(=O)[C@H](CO)NC(=O)CNC(=O)[C@H](CCC(=O)O)NC(=O)C(C)(C)NC(=O)[C@@H](N)Cc1c[nH]cn1)[C@@H](C)O)C(C)C)C(=O)N[C@@H](C)C(=O)N[C@@](C)(Cc1ccccc1)C(=O)N[C@H](C(=O)N[C@H](C(=O)N[C@@H](CCCCNC(=O)COCCOCCNC(=O)COCCOCCNC(=O)CCCCCCCCCCCCCCCCC(=O)O)C(=O)NCC(=O)NCC(N)=O)C(C)C)C(C)C [compound 198]

The next lines start with the molecule.

Row | Compound | EC50 [1, 5] | EC50 [1, 6] | EC50 [2, 7] | EC50 [2, 8] | EC50 [3, 9] | EC50 [3, 10] | EC50 [4, 11] | EC50 [4, 12] | EC50 [4, 13] | EC50 ([1]; cAMP assay, second determination (n2), read-out: Primary assay EC50 GLP-1R n2) | EC50 [1, 14] | EC50 [1, 15] | EC50 [2, 16] | EC50 [2, 17] | EC50 [3, 18] | EC50 [3, 19]
3 | CCCCCCCCCCCC(=O)NCCOCCOCC(=O)NCCOCCOCC(=O)NCCOCCOCC(=O)NCCCC[C@H](NC(=O)[C@@H](NC(=O)[C@@H](NC(=O)[C@](C)(Cc1ccccc1)NC(=O)[C@H](C)NC(=O)[C@@H](NC(=O)[C@](C)(Cc1ccccc1)NC(=O)[C@H](CCC(=O)O)NC(=O)[C@](C)(CCCCN)NC(=O)[C@H](C)NC(=O)[C@H](C)NC(=O)[C@H](CCC(=O)O)NC(=O)CNC(=O)[C@H](CCC(=O)O)NC(=O)[C@H](CC(C)C)NC(=O)[C@](C)(Cc1ccccc1)NC(=O)[C@H](CO)NC(=O)[C@](C)(CO)NC(=O)[C@@H](NC(=O)[C@H](CC(=O)O)NC(=O)[C@H](CO)NC(=O)[C@@H](NC(=O)[C@](C)(Cc1ccccc1)NC(=O)[C@H](CO)NC(=O)CNC(=O)[C@H](CCC(=O)O)NC(=O)C(C)(C)NC(=O)[C@@H](N)Cc1c[nH]cn1)[C@@H](C)O)C(C)C)[C@@H](C)CC)C(C)C)C(C)C)C(=O)NCC(=O)NCC(N)=O [compound 172] | 1.5 pM | 1.1 pM | ≥ 26 nM | ≥ 26 nM | ≥ 26 nM | ≥ 26 nM | 33.8 pM | 39.6 pM | 28 pM | – | – | – | – | – | – | –
4 | CCCCCCCCCCCCCCCCCC(=O)N[C@@H](CCC(=O)N[C@@H](CCC(=O)N[C@@H](CCC(=O)NCCCC[C@H](NC(=O)[C@@H](NC(=O)[C@@H](NC(=O)[C@](C)(Cc1ccccc1)NC(=O)[C@H](C)NC(=O)[C@@H](NC(=O)[C@](C)(Cc1ccccc1)NC(=O)[C@H](CCC(=O)O)NC(=O)[C@](C)(CCCCN)NC(=O)[C@H](C)NC(=O)[C@H](C)NC(=O)[C@H](CCC(=O)O)NC(=O)CNC(=O)[C@H](CCC(=O)O)NC(=O)[C@H](CC(C)C)NC(=O)[C@](C)(Cc1ccccc1)NC(=O)[C@H](CO)NC(=O)[C@](C)(CO)NC(=O)[C@@H](NC(=O)[C@H](CC(=O)O)NC(=O)[C@H](CO)NC(=O)[C@@H](NC(=O)[C@](C)(Cc1ccccc1)NC(=O)[C@H](CO)NC(=O)CNC(=O)[C@H](CCC(=O)O)NC(=O)C(C)(C)NC(=O)[C@@H](N)Cc1c[nH]cn1)[C@@H](C)O)C(C)C)[C@@H](C)CC)C(C)C)C(C)C)C(=O)NCC(=O)NCC(N)=O)C(=O)O)C(=O)O)C(=O)O [compound 184] | 47 pM | 29.5 pM | ≥ 26 nM | ≥ 26 nM | ≥ 26 nM | ≥ 26 nM | 426 pM | 351 pM | 501 pM | 12 pM | – | – | – | – | – | –
5 | CCCCCCCCCCCCCCCCCC(=O)NCCOCCOCC(=O)NCCOCCOCC(=O)NCCCC[C@H](NC(=O)[C@@H](NC(=O)[C@@H](NC(=O)[C@](C)(Cc1ccccc1)NC(=O)[C@H](C)NC(=O)[C@@H](NC(=O)[C@](C)(Cc1ccccc1)NC(=O)[C@H](CCC(=O)O)NC(=O)[C@](C)(CCCCN)NC(=O)[C@H](C)NC(=O)[C@H](C)NC(=O)[C@H](CCC(=O)O)NC(=O)CNC(=O)[C@H](CCC(=O)O)NC(=O)[C@H](CC(C)C)NC(=O)[C@](C)(Cc1ccccc1)NC(=O)[C@H](CO)NC(=O)[C@](C)(CO)NC(=O)[C@@H](NC(=O)[C@H](CC(=O)O)NC(=O)[C@H](CO)NC(=O)[C@@H](NC(=O)[C@](C)(Cc1ccccc1)NC(=O)[C@H](CO)NC(=O)CNC(=O)[C@H](CCC(=O)O)NC(=O)C(C)(C)NC(=O)[C@@H](N)Cc1c[nH]cn1)[C@@H](C)O)C(C)C)[C@@H](C)CC)C(C)C)C(C)C)C(=O)NCC(=O)NCC(N)=O [compound 189] | – | 20.8 pM | – | – | – | – | 144 pM | 114 pM | 173 pM | – | 30 pM | 12 pM | ≥ 27 nM | ≥ 27 nM | ≥ 27 nM | ≥ 27 nM
